Patent EP0995757A2, “Bivalent inhibitors of the proteasome” (Max-Planck-Gesellschaft zur Förderung der Wissenschaften …, priority 1998, dated 2000)
pIC50: −log10 of the molar value. Where a SMILES comes first, the peptide text is derived from it.

What was measured:
yeast proteasome β2/β2' [1] = target: T1, yeast proteasome β2/β2' (Saccharomyces cerevisiae, UniProt P25043); assay: Proteasome assay, trypsin-like activity (fluorogenic substrate Bz-Phe-Val-Arg-AMC); type: biochemical; design: endogenous in cells; host or cells: Saccharomyces cerevisiae; settings: Bz-Phe-Val-Arg-AMC 8 µM, inhibitor incubated 1 h at 37°C, Tris-buffer pH 7.5
Description: (§1) A solution of proteasome from Saccharomyces cerivisiae in Tris-buffer (pH 7.5; 450 µl; 6.67 nM for PGPH, 5.56 nM for trypsin-like and 1.11 nM for chymotrypsin-like activity) was incubated with the inhibitors at varying concentrations ([…]) for 1 h at 37°C. The fluorogenic substrates for PGPH (Z-Leu-Leu-Glu-βNA, 40 µM), trypsin-like (Bz-Phe-Val-Arg-AMC, 8 µM) and chymotrypsin-like assays (Suc-Leu-Leu-Val-Tyr-AMC, 8 µM) were dissolved in the same Tris-buffer with a minimum amount of DMSO and added to the enzyme solution at 37 °C to reach a final volume of 500 µl. Fluorescence excitation/emission wavelengths were 360 nm/460 nm for AMC and 335 nm/410 nm for βNA. The rates of hydrolysis were monitored by the fluorescence increase and the initial linear portions of curves (100-300 sec) were used to calculate the IC50 values.

yeast proteasome β5/β5' [2] = target: T2, yeast proteasome β5/β5' (Saccharomyces cerevisiae, UniProt P30656); assay: Proteasome assay, chymotrypsin-like activity (fluorogenic substrate Suc-Leu-Leu-Val-Tyr-AMC); type: biochemical; design: endogenous in cells; host or cells: Saccharomyces cerevisiae; settings: Suc-Leu-Leu-Val-Tyr-AMC 8 µM, inhibitor incubated 1 h at 37°C, Tris-buffer pH 7.5
Description: as §1

yeast proteasome β1/β1' [3] = target: T3, yeast proteasome β1/β1' (Saccharomyces cerevisiae, UniProt P38624); assay: Proteasome assay, PGPH activity (fluorogenic substrate Z-Leu-Leu-Glu-βNA); type: biochemical; design: Three of the seven different β-type subunits are processed at the N-terminal nucleophile, the threonine-1 residue; endogenous in cells; host or cells: Saccharomyces cerevisiae; settings: Z-Leu-Leu-Glu-βNA 40 µM, inhibitor incubated 1 h at 37°C, Tris-buffer pH 7.5
Description: as §1

yeast 20S proteasome = target: T4, yeast 20S proteasome (Saccharomyces cerevisiae, UniProt P25043+P30656+P38624); assay: X-ray structure analysis of proteasome/inhibitor complexes (crystal soaking); design: species or system S. cerivisiae; settings: crystals soaked with 5 mM inhibitor for 12h, no competing substrate
T4 construct: Three of the seven different β-type subunits are processed at the N-terminal nucleophile, the threonine-1 residue; from tissue; host or cells: Saccharomyces cerevisiae (natural 20S complex)
Description: Crystals of […] proteasomes from S. cerivisiae were grown in hanging drops at 24 °C as described previously (Groll et al., Nature 386, 463-471, 1997). The protein concentration used for crystallization was 40 mg/ml in 10 mM Tris-HCl (pH 7.5) and 1 mM EDTA. The drops contained 4 µl protein and 2 µl reservoir solution with 30 mM magnesium acetate, 100 mM morpholino-ethane-sulphonic acid (pH 6.5) and 11 % MPD. The inhibitors were soaked with a final concentration of 5 mM for 12h. Data were collected using synchrotron radiation with λ = 1.1 Å on the BW6-beamline at the DESY-Centre/Hamburg/Germany (Table 1). Crystals were soaked in a cryoprotecting buffer (30% MPD, 28 mM magnesium acetate, 100 mM morpholino-ethane-sulfonic acid (pH 6.9) and frozen in a stream of cold nitrogen gas at 90 K (Oxford Cryo Systems). X-ray intensities were evaluated by using the MOSFILM program package (version 5.3) and data reduction was performed with CCP4. The anisotropy of diffraction was corrected by an overall anisotropic temperature factor by comparing observed and calculated structure amplitudes using X-PLOR (Brunger, A. (1992) X-PLOR: A System for X-Ray Crystallography and NMR, version 3.1; Yale University Press, New Haven, CT). Electron density was averaged 10 times over the 2-fold non crystallographic symmetry axis using MAIN (Turk, D., Ph. D. Thesis, Technical University, Munich, 1992). […]

yeast proteasome β2/β2' [4] = target: T1, yeast proteasome β2/β2'; assay: Proteasome assay, trypsin-like activity (fluorogenic substrate Bz-Phe-Val-Arg-AMC); type: biochemical, Saccharomyces cerivisiae; design: from tissue; host or cells: Saccharomyces cerevisiae (natural complex from yeast; I conclude this from 'proteasome from'); settings: for pIC50: trypsin-like activity, Bz-Phe-Val-Arg-AMC 8 µM, inhibitor incubated 1 h at 37°C, Tris-buffer pH 7.5; for increase in binding affinity: compared to the monovalent inhibitors 1, 2, 3 and 5, β2/β2'
Description: as §1

yeast proteasome β5/β5' [5] = target: T2, yeast proteasome β5/β5'; assay: Proteasome assay, chymotrypsin-like activity (fluorogenic substrate Suc-Leu-Leu-Val-Tyr-AMC); type: biochemical, Saccharomyces cerivisiae; design: from tissue; host or cells: Saccharomyces cerevisiae (natural complex from yeast; I conclude this from 'proteasome from'); settings: for pIC50: chymotrypsin-like activity, Suc-Leu-Leu-Val-Tyr-AMC 8 µM, inhibitor incubated 1 h at 37°C, Tris-buffer pH 7.5; for increase in binding affinity: compared to the monovalent inhibitors 1, 2, 3 and 5, β5/β5'
Description: as §1

yeast proteasome β1/β1' [6] = target: T3, yeast proteasome β1/β1'; assay: Proteasome assay, PGPH activity (fluorogenic substrate Z-Leu-Leu-Glu-βNA); type: biochemical, Saccharomyces cerivisiae; design: Three of the seven different β-type subunits are processed at the N-terminal nucleophile, the threonine-1 residue; from tissue; host or cells: Saccharomyces cerevisiae (natural complex from yeast; I conclude this from 'proteasome from'); settings: Z-Leu-Leu-Glu-βNA 40 µM, inhibitor incubated 1 h at 37°C, Tris-buffer pH 7.5
Description: as §1

CC(=O)N[C@@H](CCCNC(=N)N)C(=O)N[C@H](C(=O)N[C@H](C=O)CCCNC(=N)N)C(C)C [compound 2, Ac-Arg-Val-Arg-H] (Ac-Arg-Val-Arg-aldehyde)
pIC50 (yeast proteasome β2/β2' [1]): 5.19
pIC50 (yeast proteasome β5/β5' [2]): < 4.00
pIC50 (yeast proteasome β1/β1' [3]): < 4.00

(PEG)19-25-[NH- CO- (CH2)2- CO-Leu-Leu-Nle-H]2 [compound 4]
active sites occupied by the inhibitory head group in the X-ray structure (yeast 20S proteasome): occupies all six active sites
pIC50 (yeast proteasome β2/β2' [4]): < 4.00
pIC50 (yeast proteasome β5/β5' [5]): 7.77
increase in binding affinity (yeast proteasome β5/β5' [5]): about two orders of magnitude
increased activity (yeast proteasome β5/β5' [5]; homobivalent versus related monovalent inhibitors, chymotryptic activity β5/β5'): 100 fold
pIC50 (yeast proteasome β1/β1' [6]): < 4.00

(PEG)19-25-[NH-CO-(CH2)2-CO-Arg- Val-Arg-H]2 [compound 6]
active sites occupied by the inhibitory head group in the X-ray structure (yeast 20S proteasome): only in the two β2 and β2' active sites
increase in binding affinity (yeast proteasome β2/β2' [4]): about two orders of magnitude
increased activity (yeast proteasome β2/β2' [4]; homobivalent versus related monovalent inhibitors, tryptic activity β2/β2'): 100 fold
pIC50 (yeast proteasome β2/β2' [4]): 7.15
pIC50 (yeast proteasome β5/β5' [5]): < 4.00
pIC50 (yeast proteasome β1/β1' [6]): < 4.00

(PEG)19-25-[NH-CO-(CH2)2-CO-Arg-Val-Arg-H][NH-CO-(CH2)2-CO-Leu-Leu-Nle-H] [compound 7]
increase in binding affinity (yeast proteasome β2/β2' [4]): about two orders of magnitude
pIC50 (yeast proteasome β2/β2' [4]): 7.01
pIC50 (yeast proteasome β5/β5' [5]): 7.51
increase in binding affinity (yeast proteasome β5/β5' [5]): about two orders of magnitude
pIC50 (yeast proteasome β1/β1' [6]): < 4.00

HOOC-(CH2)2-CO-NH-(PEG)19-25-NH-(CH2)2-CO-Leu-Leu-Nle-H [compound 3]
pIC50 (yeast proteasome β2/β2' [4]): < 4.00
pIC50 (yeast proteasome β5/β5' [5]): 5.74
pIC50 (yeast proteasome β1/β1' [6]): < 4.00

HOOC-(CH2)2-CO-NH-(PEG)19-25-NH-CO-(CH2)2-CO-Arg-Val-Arg-H [compound 5]
pIC50 (yeast proteasome β2/β2' [4]): 5.09
pIC50 (yeast proteasome β5/β5' [5]): < 4.00
pIC50 (yeast proteasome β1/β1' [6]): < 4.00
